Data reported in article PMC6934184, “Selective DNA-PKcs inhibition extends the therapeutic index of localized radiotherapy and chemotherapy” (The Journal of Clinical Investigation, 2019).

Target: T1, DAPK2 (Homo sapiens, UniProt Q9UIK4)
T1 construct: purchased Thermo Fisher Scientific (Life Technologies) SelectScreen
Assay: SelectScreen LanthaScreen
Format: binding
Conditions: read-out: % displacement
Outline: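 SelectScreen broad panel; activity (Z'LYTE, Adapta) plus binding formats. ATP: Km app for CSF1R Z'LYTE; 10 for CAMK1 Adapta. Readout = % per kinase.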

T1 sequence (Q9UIK4 whole entry): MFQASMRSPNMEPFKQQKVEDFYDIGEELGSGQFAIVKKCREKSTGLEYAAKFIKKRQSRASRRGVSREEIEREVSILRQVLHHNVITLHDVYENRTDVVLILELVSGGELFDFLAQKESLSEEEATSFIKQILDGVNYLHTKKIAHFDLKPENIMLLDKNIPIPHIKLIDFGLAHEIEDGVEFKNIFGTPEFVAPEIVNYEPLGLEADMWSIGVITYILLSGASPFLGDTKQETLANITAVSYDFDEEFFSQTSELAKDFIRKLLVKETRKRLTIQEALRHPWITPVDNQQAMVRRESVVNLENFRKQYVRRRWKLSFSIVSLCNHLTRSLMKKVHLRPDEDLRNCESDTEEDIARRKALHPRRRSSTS

CN(C(=O)CN1CCOCC1)c1ccc2sc3c(-c4cccc5c(=O)cc(N6CC7CCC(C6)O7)oc45)cccc3c2c1 [NU5455]
inhibition at 1 µM: 2.9%
